The subject of assay [1] is LoVo. In words: Cytotoxicity assay (SRB), LoVo. Type of assay: cell-based. The note with it: LoVo cells, SRB, read-out: In Vitro Cellular Activity IC50 LOVO. An outline of the steps:
(§1)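 Cells grown in RPMI 1640 with 5% FBS were treated with compound for three days (HCT-116, LoVo, MCF-7) or six days (BT474). Viable cell mass was quantified by sulforhodamine B staining of TCA-fixed protein and read at 540 nm.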

Assay [2] has as its target T1, cyclin D1/cdk 4 enzyme (Homo sapiens, UniProt P11802).
T1 construct: made in house; host or cells: Sf9 insect cells, recombinant baculovirus
As to the kind of experiment: CDK4 ELISA kinase assay (phospho-Rb ser 795 detection). The format is biochemical. An outline of the steps: (§2)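 Sf9-derived cyclin/CDK, 200 μM ATP, immobilized GST-Rb; 30° C/1 h. Detection: phospho-Ser795 Ab, HRP, TMB, OD450.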
Background: In an ELISA, binding on a coated surface is turned into a signal by an enzyme label.

Assay [3] has as its system HCT-116. As to the kind of experiment: Cytotoxicity assay (SRB), HCT-116. The format is cell-based. As to conditions: HCT116 cells, SRB, read-out: In Vitro Cellular Activity IC50 HCT116. The method, boiled down: as §1
Assay [4] concerns MCF-7. As to the kind of experiment: Cytotoxicity assay (SRB), MCF-7. Type of assay: cell-based. The note with it: MCF-7 cells, SRB, read-out: In Vitro Cellular Activity IC50 MCF-7. The method, boiled down: as §1
The target in assay [5] is T2, cyclin E/CDK2 enzyme (Homo sapiens, UniProt P24941).
T2 construct: made in house; host or cells: Sf9 insect cells, recombinant baculovirus
In words: CDK2 ELISA kinase assay (phospho-Rb ser 795 detection). Type of assay: biochemical. An outline of the steps:
as §2

Assay [6] relates to BT474. In words: Cytotoxicity assay (SRB), BT474. The format is cell-based. An outline of the steps:
as §1

The target in assay [7] is T3, cyclin B/CDK1 enzyme (Homo sapiens, UniProt P06493).
T3 construct: purchased New England BioLabs; host or cells: Sf9 insect cells, recombinant baculovirus
T3 sequence (P06493 whole entry): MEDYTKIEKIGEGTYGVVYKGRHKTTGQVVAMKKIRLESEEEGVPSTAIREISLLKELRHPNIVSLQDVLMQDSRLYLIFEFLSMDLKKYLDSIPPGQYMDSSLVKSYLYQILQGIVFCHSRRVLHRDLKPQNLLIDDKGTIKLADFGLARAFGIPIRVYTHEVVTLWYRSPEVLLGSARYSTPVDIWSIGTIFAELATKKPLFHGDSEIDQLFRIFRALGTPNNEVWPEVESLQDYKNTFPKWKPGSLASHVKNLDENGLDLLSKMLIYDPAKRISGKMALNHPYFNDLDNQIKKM
T3 sequence (P14635 whole entry partner): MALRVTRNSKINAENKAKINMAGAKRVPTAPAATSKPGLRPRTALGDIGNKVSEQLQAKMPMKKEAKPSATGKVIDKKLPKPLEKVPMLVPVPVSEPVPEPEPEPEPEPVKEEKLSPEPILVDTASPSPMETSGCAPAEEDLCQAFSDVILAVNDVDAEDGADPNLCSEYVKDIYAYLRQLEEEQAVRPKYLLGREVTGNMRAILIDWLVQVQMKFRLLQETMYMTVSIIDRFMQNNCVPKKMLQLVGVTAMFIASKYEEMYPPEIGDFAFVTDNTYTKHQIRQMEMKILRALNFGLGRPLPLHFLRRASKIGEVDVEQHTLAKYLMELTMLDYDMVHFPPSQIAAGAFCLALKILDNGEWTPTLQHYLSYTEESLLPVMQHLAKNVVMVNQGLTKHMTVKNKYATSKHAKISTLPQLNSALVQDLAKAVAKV
In words: CDK1 ELISA kinase assay (phospho-Rb ser 795 detection). The format is biochemical. An outline of the steps: as §2

The mark [8] stands for this setting: Homo sapiens, LoVo, 72 h, 3 days.
[9] abbreviates: In Vitro Enzyme Assay, cyclin D1/cdk 4, read-out: CDK4 IC50.
Setting [10] is: Homo sapiens, HCT-116, 72 h, 3 days.
The mark [11] stands for this setting: Homo sapiens, MCF7, 72 h, 3 days.
[12] abbreviates: In Vitro Enzyme Assay, cyclin E/CDK2, read-out: CDK2 IC50.
Where [13] appears, read: Homo sapiens, BT-474, 144 h, BT474 cells, 6 days, SRB; read-out: In Vitro Cellular Activity IC50 BT474.
The mark [14] stands for this setting: In Vitro Enzyme Assay, cyclin B/CDK1, read-out: CDK1 IC50.
Where [15] appears, read: Homo sapiens, LoVo, 72 h, three days.
Where [16] appears, read: In Vitro Enzyme Assays, 200 μM ATP, read-out: CDK4 IC50.
The mark [17] stands for this setting: Homo sapiens, HCT-116, 72 h, three days.
[18] abbreviates: Homo sapiens, MCF7, 72 h, three days.
Where [19] appears, read: In Vitro Enzyme Assays, read-out: CDK2 IC50.
Where [20] appears, read: Homo sapiens, BT-474, 144 h, BT474 cells, SRB, 6 days; read-out: In Vitro Cellular Activity IC50 BT474.
Where [21] appears, read: In Vitro Enzyme Assays, read-out: CDK1 IC50.

Where two headings read alike, the source gives them in different places.

T1 sequence (P11802 whole entry, species assumed): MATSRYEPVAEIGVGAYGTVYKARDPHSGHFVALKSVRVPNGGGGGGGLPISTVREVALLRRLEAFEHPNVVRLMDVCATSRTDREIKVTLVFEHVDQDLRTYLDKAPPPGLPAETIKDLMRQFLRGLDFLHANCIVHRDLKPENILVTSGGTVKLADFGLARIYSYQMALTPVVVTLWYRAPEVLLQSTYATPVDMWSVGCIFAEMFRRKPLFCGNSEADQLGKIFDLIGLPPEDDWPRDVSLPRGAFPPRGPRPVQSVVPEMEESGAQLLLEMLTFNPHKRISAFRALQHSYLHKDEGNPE
T1 sequence (P24385 whole entry partner, species assumed): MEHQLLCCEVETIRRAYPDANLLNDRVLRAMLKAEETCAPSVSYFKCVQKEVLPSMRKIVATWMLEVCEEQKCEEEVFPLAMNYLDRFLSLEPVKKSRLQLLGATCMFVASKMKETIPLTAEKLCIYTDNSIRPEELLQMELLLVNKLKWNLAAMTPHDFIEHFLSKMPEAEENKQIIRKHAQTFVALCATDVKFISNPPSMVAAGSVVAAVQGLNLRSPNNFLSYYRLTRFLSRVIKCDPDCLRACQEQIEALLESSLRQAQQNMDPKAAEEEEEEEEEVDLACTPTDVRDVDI

With `O=C1NC(=O)c2ccc(C=Cn3ccnc3)cc2C1=CNCc1ccc(O)c(O)c1` [Example 667, 4-[(3,4-Dihydroxy-benzylamino)-methylene]-6-(2-imidazol-1-yl-vinyl)-4H-isoquinoline-1,3-dione], the 50% inhibitory concentration (IC50) was 29.4 µM in assay [1] (setting [8]); 0.01 µM in assay [2] (setting [9]); more than 50 µM in assay [3] (setting [10]); 12.4 µM in assay [4] (setting [11]); 4 µM in assay [5] (setting [12]); more than 50 µM in assay [6] (setting [13]). Further, the concentration for half-maximal inhibition (IC50) in assay [7] (setting [14]) is more than 50 µM.
Regarding `O=C1NC(=O)c2ccc(-c3ccsc3)cc2/C1=C/NCc1ccc(OC(F)F)c(O)c1` [Example 200, (4Z)-4-({[4-(Difluoromethoxy)-3-hydroxybenzyl]amino}methylene)-6-thien-3-ylisoquinoline-1,3(2H,4H)-dione], the IC50 in assay [1] (setting [15]) turned out to be 4.7 µM; in assay [2] (setting [16]), 0.009 µM; in assay [3] (setting [17]), 5.4 µM; in assay [4] (setting [18]), 7.2 µM; in assay [5] (setting [19]), 26.5 µM; in assay [6] (setting [20]), 9.3 µM. Further, the IC50 in assay [7] (setting [21]) is more than 50 µM.
In the case of `O=C1NC(=O)c2ccc(I)cc2/C1=C/Nc1ccc(N2CCN(Cc3ccco3)CC2)cc1` [Example 389, (4Z)-4-[({4-[4-(2-Furylmethyl)piperazin-1-yl]phenyl}amino)methylene]-6-iodoisoquinoline-1,3(2H,4H)-dione], the IC50 in assay [1] (setting [15]) is more than 50 µM; in assay [2] (setting [16]), 1.66 µM; in assay [3] (setting [17]), 23 µM; in assay [4] (setting [18]), 29 µM; in assay [5] (setting [19]), more than 50 µM; in assay [6] (setting [20]), more than 50 µM. The IC50 in assay [7] (setting [21]) was more than 50 µM.
Consider `N#Cc1ccc(-c2ccc3c(c2)C(=CNc2ccc(CN4CCCC4)cc2)C(=O)NC3=O)cc1` [Example 839, 4-{1,3-Dioxo-4-[(4-pyrrolidin-1-ylmethyl-phenylamino)-methylene]-1,2,3,4-tetrahydro-isoquinolin-6-yl}-benzonitrile], for which the IC50 in assay [1] (setting [8]) was more than 50 µM; in assay [2] (setting [9]), 3.3 µM; in assay [3] (setting [10]), 14.1 µM; in assay [4] (setting [11]), 21.6 µM; in assay [5] (setting [12]), 38.8 µM; in assay [6] (setting [13]) it was 27.2 µM. Also, in assay [7] (setting [14]), the IC50 is more than 50 µM.
Take `CC(C)[Si](Oc1cc(CN/C=C2\C(=O)NC(=O)c3ccc(Br)cc32)ccc1N)(C(C)C)C(C)C` [Example 303, (4Z)-4-[({4-Amino-3-[(triisopropylsilyl)oxy]benzyl}amino)methylene]-6-bromoisoquinoline-1,3(2H,4H)-dione]: the IC50 in assay [1] (setting [15]) was found to be 4.6 µM; in assay [2] (CDK4 IC50, In Vitro Enzyme Assays, 200 μM ATP), 0.39 µM; in assay [3] (setting [17]) it was 5.3 µM; in assay [4] (setting [18]) it was 10 µM; in assay [5] (setting [19]) it was 3.7 µM; in assay [6] (setting [20]) it was 3.1 µM. In assay [7] (CDK1 IC50, In Vitro Enzyme Assays), this molecule registered a half-inhibitory concentration (IC50) of 33.9 µM.
In the case of `CN1CCN(c2ccc(N/C=C3\C(=O)NC(=O)c4ccc(-c5ccoc5)cc43)cc2)CC1` [Example 236, (4Z)-6-(3-Furyl)-4-({[4-(4-methylpiperazin-1-yl)phenyl]amino}methylene)isoquinoline-1,3(2H,4H)-dione], the half-inhibitory concentration (IC50) in assay [1] (setting [15]) is 2.2 µM; in assay [2] (setting [16]) it was 0.22 µM; in assay [3] (setting [17]), 1.2 µM; in assay [4] (setting [18]) it was 1.1 µM; in assay [5] (setting [19]), more than 50 µM; in assay [6] (setting [20]), 1 µM. Further, the IC50 in assay [7] (setting [21]) is more than 50 µM.
As for `CN1CCN(c2ccc(N/C=C3\C(=O)NC(=O)c4ccc(-c5ccoc5)cc43)c(F)n2)CC1` [Example 498, (4Z)-4-({[2-Fluoro-6-(4-methylpiperazin-1-yl)pyridin-3-yl]amino}methylene)-6-(3-furyl)isoquinoline-1,3(2H,4H)-dione], the IC50 was found to be 1.6 µM in assay [1] (3 days); 0.21 µM in assay [2] (setting [9]); 1.1 µM in assay [3] (3 days); 3.5 µM in assay [4] (3 days); 32.4 µM in assay [5] (setting [12]); 1 µM in assay [6] (BT474 cells, 6 days, SRB; read-out: In Vitro Cellular Activity IC50 BT474). For the same molecule, the half-inhibitory concentration (IC50) in assay [7] (setting [14]) worked out at 19.3 µM.
As for `O=C1NC(=O)c2ccc(-c3cccc(C(=O)O)c3)cc2C1=CNCc1ccc(O)c(O)c1` [Example 771, 3-{4-[(3,4-Dihydroxy-benzylamino)-methylene]-1,3-dioxo-1,2,3,4-tetrahydro-isoquinolin-6-yl}-benzoic acid], the IC50 in assay [1] (setting [8]) is 48 µM; in assay [2] (setting [9]) it was 0.82 µM; in assay [3] (setting [10]), 39.5 µM; in assay [4] (setting [11]), more than 50 µM; in assay [5] (setting [12]), 10 µM; in assay [6] (setting [13]), 33.3 µM. The concentration for half-maximal inhibition (IC50) in assay [7] (setting [14]) was found to be 26.5 µM.
On to `COc1ccc(-c2ccc3c(c2)C(=CNCc2ccc(O)c(O)c2)C(=O)NC3=O)cc1OC` [Example 813, 4-[(3,4-Dihydroxy-benzylamino)-methylene]-6-(3,4-dimethoxy-phenyl)-4H-isoquinoline-1,3-dione], for which the half-inhibitory concentration (IC50) in assay [1] (setting [8]) came to 12.7 µM; in assay [2] (setting [9]), 0.31 µM; in assay [3] (setting [10]) it was 19.8 µM; in assay [4] (setting [11]), 29.7 µM; in assay [5] (setting [12]) it was 33.1 µM; in assay [6] (setting [13]) it was 35.8 µM. Also, in assay [7] (setting [14]), the IC50 was more than 50 µM.
For the molecule `CN(C)CCCc1ccc(N/C=C2\C(=O)NC(=O)c3ccc(Br)cc32)cc1` [Example 874, (4Z)-6-Bromo-4-[({4-[3-(dimethylamino)propyl]phenyl}amino)methylene]isoquinoline-1,3(2H,4H)-dione], the half-inhibitory concentration (IC50) in assay [1] (setting [8]) stood at 23.7 µM; in assay [2] (In Vitro Enzyme Assay, read-out: CDK4 IC50), 3 µM; in assay [3] (setting [10]), 12.6 µM; in assay [4] (setting [11]), 7.2 µM; in assay [5] (In Vitro Enzyme Assay, read-out: CDK2 IC50), 38.8 µM; in assay [6] (setting [13]) it was 27.4 µM. Besides, in assay [7] (In Vitro Enzyme Assay, read-out: CDK1 IC50), the IC50 was more than 50 µM.
In the case of `C=CCN1CCCC1c1ccc(N/C=C2\C(=O)NC(=O)c3ccc(I)cc32)cc1` (centres unmarked) [Example 419, 4-{[4-(1-Allyl-pyrrolidin-2-yl)-phenylamino]-methylene}-6-iodo-4H-isoquinoline-1,3-dione], the half-inhibitory concentration (IC50) came to 12 µM in assay [1] (setting [8]); 0.77 µM in assay [2] (setting [16]); 7 µM in assay [3] (setting [10]); 7.6 µM in assay [4] (setting [11]); 31 µM in assay [5] (setting [19]); 12.9 µM in assay [6] (setting [13]). In addition, the IC50 in assay [7] (setting [21]) was more than 50 µM.
Turning to `COCC1CCN(c2ccc(N/C=C3\C(=O)NC(=O)c4ccc(I)cc43)cc2)CC1` [Example 435, (4Z)-6-Iodo-4-[({4-[4-(methoxymethyl)piperidin-1-yl]phenyl}amino)methylene]isoquinoline-1,3(2H,4H)-dione], the IC50 was 5.2 µM in assay [1] (setting [8]); 4.6 µM in assay [2] (setting [16]); 3.2 µM in assay [3] (setting [10]); 26 µM in assay [4] (setting [11]); 38.8 µM in assay [5] (setting [19]); 8.5 µM in assay [6] (setting [13]). In assay [7] (setting [21]), the 50% inhibitory concentration (IC50) was more than 50 µM.
With `CN1CCN(c2ncc(N/C=C3\C(=O)NC(=O)c4ccc(-c5ccoc5)cc43)cn2)CC1` [Example 484, (4Z)-6-(3-Furyl)-4-({[2-(4-methylpiperazin-1-yl)pyrimidin-5-yl]amino}methylene)isoquinoline-1,3(2H,4H)-dione], the 50% inhibitory concentration (IC50) was 1.24 µM in assay [1] (setting [8]); 0.25 µM in assay [2] (setting [9]); 1.13 µM in assay [3] (setting [10]); 3.23 µM in assay [4] (setting [11]); more than 50 µM in assay [5] (setting [12]); 2.49 µM in assay [6] (setting [13]). For the same molecule, in assay [7] (setting [14]), the IC50 came out at 31 µM.
With `CSc1ccc(-c2ccc3c(c2)C(=CNCc2ccc(O)c(O)c2)C(=O)NC3=O)cc1` [Example 792, 4-[(3,4-Dihydroxy-benzylamino)-methylene]-6-(4-methylsulfanyl-phenyl)-4H-isoquinoline-1,3-dione], the IC50 in assay [1] (setting [8]) came to 15.6 µM; in assay [2] (setting [9]), 0.47 µM; in assay [3] (setting [10]), 14.7 µM; in assay [4] (setting [11]), 13.1 µM; in assay [5] (setting [12]), 22.6 µM; in assay [6] (setting [13]), 41 µM. Further, the IC50 in assay [7] (setting [14]) is more than 50 µM.

By IC50 is commonly meant the point on the concentration scale where inhibition reaches its midpoint.

Source of the values: US7713994B2 (Wyeth LLC, priority 2005, dated 2010).
